Here are results for 37 molecules from patent US7078400B2, “20-HETE synthase inhibitor” (Taisho Pharmaceutical Co., Ltd., priority 1999, dated 2006).

Series [1] relates to 20-HETE synthase originated from rat kidney microsome. Briefly: Inhibitory effect of 20-HETE synthase originated from rat kidney microsome. The settings on record: rat kidney microsome; for Inhibition rate (1 μM): 1 μM of subject compound, 20-HETE production without compound set to 100%; for IC50: concentration at which 20-HETE production was inhibited to 50%. Type of series: biochemical. An outline of the steps: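 Kidney microsomes from 6-week male spontaneously hypertensive rats were used with tritium-arachidonic acid and NADPH. 20-HETE was quantified by radio-HPLC on a C18 column.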

By melting point is commonly meant the temperature, or range, at which the solid turns liquid. One may read the IC50 as the concentration needed to halve the response being measured. In turn, `CC(C)Oc1ccc(N/C=N/O)cc1` [Comp. 316] came in with a melting point of 144 to 146 °C. In addition, in series [1], the “Inhibition rate (1 μM)” value amounted to 97.9 and the IC50 came to 24 nM.

Molecule `CCCCCOc1ccc(N/C=N/O)cc1` [Comp. 319] had a melting point of 126 to 137.5 °C. In series [1], the “Inhibition rate (1 μM)” value was 99.9 and the IC50 came to 3.8 nM.

As for `CCCCCCOc1ccc(N/C=N/O)cc1` [Comp. 320], the melting point was 125 to 126 °C. In addition, in series [1], the “Inhibition rate (1 μM)” value is 92.5 and the concentration for half-maximal inhibition (IC50) came out at 1.3 nM.

`CCCCCCCOc1ccc(N/C=N/O)cc1` [Comp. 321]: the melting point was in the range of 121 to 122.5 °C. In series [1], the “Inhibition rate (1 μM)” value is recorded as 99.9 and the half-inhibitory concentration (IC50) worked out at 3.7 nM.

`CCCCCCCCCOc1ccc(N/C=N/O)cc1` [Comp. 323] showed a melting point of 128 to 130 °C. Moreover, the IC50 in series [1] amounted to 25.9 nM.

With `CC(C)(C)COc1ccc(N/C=N/O)cc1` [Comp. 324], the melting point was in the range of 148.5 to 149.5 °C. Moreover, in series [1], the “Inhibition rate (1 μM)” value was determined as 99 and inhibition was half-maximal at 3.7 nM (IC50).

The molecule `CC(C)(C)CCOc1ccc(N/C=N/O)cc1` [Comp. 325] displayed a melting point of 123 to 125 °C. In addition, in series [1], the “Inhibition rate (1 μM)” value is listed as 106 and inhibition was half-maximal at 2.6 nM (IC50).

The molecule `C=CCCCOc1ccc(N/C=N/O)cc1` [Comp. 329] gave a melting point of 127 to 128 °C. In series [1], the “Inhibition rate (1 μM)” value was found to be 121.1 and the IC50 came out at 0.7 nM.

In turn, `C=CCCOc1ccc(N/C=N/O)cc1` [Comp. 330] came in with a melting point of 122 to 124 °C. In addition, in series [1], the “Inhibition rate (1 μM)” value is 118.8 and the IC50 was 2.4 nM.

As to `C#CCCCOc1ccc(N/C=N/O)cc1` [Comp. 331], the melting point is 139 to 139.5 °C. Also, in series [1], the “Inhibition rate (1 μM)” value was 118.8 and the midpoint of inhibition, the IC50, lay at 3.2 nM.

With `C/C=C/C=C/COc1ccc(N/C=N/O)cc1` [Comp. 332], the melting point was 169.5 to 170 °C. In addition, in series [1], the “Inhibition rate (1 μM)” value was 110.6 and the IC50 came to 2.1 nM.

In turn, `CC#CCOc1ccc(N/C=N/O)cc1` [Comp. 333] had a melting point of 171.5 to 172 °C. In addition, in series [1], the “Inhibition rate (1 μM)” value was 119.3 and half-maximal inhibition (IC50) was put at 2.2 nM.

For the molecule `CC(C)=CCOc1ccc(N/C=N/O)cc1` [Comp. 334], the melting point fell in the range of 125 to 126 °C. For the same molecule, in series [1], the “Inhibition rate (1 μM)” value amounted to 105 and the IC50 was 3.2 nM.

`C#CCCOc1ccc(N/C=N/O)cc1` [Comp. 335] yielded a melting point of 139 to 141 °C. Further, in series [1], the “Inhibition rate (1 μM)” value worked out at 110 and half-maximal inhibition (IC50) was put at 1.4 nM.

Regarding `C/C=C/COc1ccc(N/C=N/O)cc1` [Comp. 336], the melting point is 142.5 to 146 °C. In addition, in series [1], the “Inhibition rate (1 μM)” value stood at 117.6 and the IC50 was 3.2 nM.

`CC#CCCOc1ccc(N/C=N/O)cc1` [Comp. 337]: the melting point is 135 to 136.5 °C. Also, in series [1], the “Inhibition rate (1 μM)” value was found to be 119.4 and the IC50 amounted to 2.1 nM.

`CC/C=C/COc1ccc(N/C=N/O)cc1` [Comp. 338] showed a melting point of 100 to 102 °C. Besides, in series [1], the “Inhibition rate (1 μM)” value came to 119.8 and the IC50 is 0.9 nM.

`O/N=C/Nc1ccc(OCCN2CCCC2)cc1` [Comp. 339] had a melting point of 113.5 to 114.5 °C. Moreover, in series [1], the “Inhibition rate (1 μM)” value is recorded as 88 and the IC50 turned out to be 124 nM.

`O/N=C/Nc1ccc(OCC2COCO2)cc1` (centres unmarked) [Comp. 340] yielded a melting point of 157.5 to 158 °C. Moreover, in series [1], the “Inhibition rate (1 μM)” value is 97.4 and the IC50 stood at 3 nM.

`O/N=C/Nc1ccc(OCCC2CCCCC2)cc1` [Comp. 341] had a melting point of 129.5 to 133 °C. In addition, in series [1], the “Inhibition rate (1 μM)” value came to 104 and the IC50 amounted to 1.2 nM.

The molecule `O/N=C/Nc1ccc(OCc2ccc3ccccc3n2)cc1` [Comp. 342] had a melting point of 174.5 to 175.5 °C. In addition, in series [1], the “Inhibition rate (1 μM)” value came to 98.5 and the IC50 was 5.3 nM.

On to `O/N=C/Nc1ccc(OCc2ccccc2)cc1` [Comp. 343], for which the melting point lay within 166.5 to 167 °C. Besides, in series [1], the “Inhibition rate (1 μM)” value turned out to be 84.5 and 3.3 nM corresponded to half-maximal inhibition (IC50).

As for `O/N=C/Nc1ccc(OCc2ccncc2)cc1` [Comp. 344], the melting point fell in the range of 180 to 180.5 °C. In series [1], the “Inhibition rate (1 μM)” value is recorded as 107 and the IC50 came out at 37.5 nM.

With `O/N=C/Nc1ccc(OCc2ccccn2)cc1` [Comp. 345, N-[4-(pyridin-2-ylmethoxy)phenyl]-N′-hydroxyformamidine], the melting point lay within 159.5 to 161 °C. In addition, in series [1], the “Inhibition rate (1 μM)” value is reported as 107 and the midpoint of inhibition, the IC50, lay at 37.5 nM.

The molecule `COCCOc1ccc(N/C=N/O)cc1` [Comp. 346] had a melting point of 104 to 107 °C. For the same molecule, in series [1], the “Inhibition rate (1 μM)” value is listed as 106.2 and inhibition was half-maximal at 8.9 nM (IC50).

Regarding `COCCOCCOc1ccc(N/C=N/O)cc1` [Comp. 347], the melting point lay in the range of 80.5 to 81.5 °C. Moreover, in series [1], the “Inhibition rate (1 μM)” value is 105 and the IC50 was determined as 3.7 nM.

The molecule `CC1(C)OCC(COc2ccc(N/C=N/O)cc2)O1` (centres unmarked) [Comp. 348] gave a melting point of 128.5 to 129.5 °C. In series [1], the “Inhibition rate (1 μM)” value was found to be 103 and the IC50 stood at 3.4 nM.

With `O/N=C/Nc1ccc(OCCCc2ccccc2)cc1` [Comp. 349], the melting point lay in the range of 152.5 to 153 °C. For the same molecule, in series [1], the “Inhibition rate (1 μM)” value was determined as 100 and the 50% inhibitory concentration (IC50) stood at 1.6 nM.

As for `O/N=C/Nc1ccc(OCc2cccs2)cc1` [Comp. 350], the melting point lay in the range of 168 to 168.5 °C. For the same molecule, in series [1], the “Inhibition rate (1 μM)” value came to 91 and the IC50 is 1.4 nM.

`O/N=C/Nc1ccc(OCc2ccco2)cc1` [Comp. 352]: the melting point fell in the range of 158.5 to 159.5 °C. Moreover, in series [1], the “Inhibition rate (1 μM)” value was determined as 97 and the IC50 worked out at 4.6 nM.

Molecule `Cc1ncsc1CCOc1ccc(N/C=N/O)cc1` [Comp. 353] registered a melting point of 158 to 160 °C. Besides, in series [1], the “Inhibition rate (1 μM)” value is listed as 105 and the midpoint of inhibition, the IC50, lay at 3.7 nM.

`CC(C)OCCOc1ccc(N/C=N/O)cc1` [Comp. 354] came in with a melting point of 113 to 114 °C. Also, in series [1], the “Inhibition rate (1 μM)” value came out at 106 and the IC50 worked out at 3 nM.

`O/N=C/Nc1ccc(OCCN2CCOCC2)cc1` [Comp. 355] registered a melting point of 141 to 142 °C. Besides, in series [1], the “Inhibition rate (1 μM)” value came out at 107 and the IC50 worked out at 5.9 nM.

`O/N=C/Nc1ccc(OCC2CC2)cc1` [Comp. 356] displayed a melting point of 141 to 142.5 °C. For the same molecule, in series [1], the “Inhibition rate (1 μM)” value stood at 102 and the IC50 is 2.6 nM.

As for `O/N=C/Nc1ccc(OCCCc2ccccn2)cc1` [Comp. 358], the melting point lay in the range of 138 to 139.5 °C. Besides, in series [1], the “Inhibition rate (1 μM)” value worked out at 103 and the midpoint of inhibition, the IC50, lay at 3.1 nM.

In the case of `O/N=C/Nc1ccc(OCCSc2ccccn2)cc1` [Comp. 359], the melting point was 132.5 to 134.5 °C. Further, in series [1], the “Inhibition rate (1 μM)” value is on record as 102 and the IC50 amounted to 1.4 nM.

Molecule `CCSCCOc1ccc(N/C=N/O)cc1` [Comp. 361] returned a melting point of 104 to 106 °C. In series [1], the “Inhibition rate (1 μM)” value is 106 and the IC50 was found to be 2.1 nM.
